Experimental data: patent publication US8188141B2, “Isomigrastatin analogs in the treatment of cancer” (Sloan-Kettering Institute for Cancer Research, priority 2004, dated 2012)
Read-outs that look alike come from different tables or passages of the source.

Experiments:
[1] = test system: Ovcar3 ovarian cancer cells; assay: Chamber cell migration (transwell) assay; assay type: cell-based, human; conditions: for IC50: OVCAR-3; for inhibiting the migration of human ovarian cancer cells in the transwell assay: Ovcar3
Procedure: Cell migrations of Ovcar3 ovarian cancer cells were assayed with 8 μm of microporous 6.5-mm transwell plates (Corning). 100 wl of 5×10^4 cells in serum-free RPMI1640 medium containing 0.5% BSA were added to the upper chamber and 600 μl of medium with 10% fetal bovine serum was added to the lower chamber. Transwells were incubated for 12 hours with following concentrations of chemical compounds in both upper and lower chambers (1 nM, 10 nM, 100 nM 1 μM, 10 μM). Cells on the inside of the transwell inserts were removed with a cotton swab, and cells on the under side of the insert were fixed and stained. Photographs of three random regions were taken and the number of cells was counted to calculate the average number of cells that had transmigrated. Data shown is the average of at least three experiments.

Ovcar3 tumor cells = assay: Wound healing assay; assay type: cell-based, human; conditions: 250 nM
Procedure: The tumor cells (Ovcar3) were seeded into 24-multiwell plates (Becton-Dickinson) and cultivated until the cells formed a confluent monolayer. Wounds were set by horizontally scratching the monolayer with a sterile pipette tip. The cells were thereafter washed twice with Phosphate Buffered Saline (PBS) to remove detached cells. Growth media was then added containing 250 nM of the chemical compounds (21, 22, and 30) and incubated at 37° C. The cells were photographed at the beginning of the experiment and after 24 to assess the progression of cell migration into the wound.

[2] = test system: human ovarian tumor cell line OVCAR3; assay: In vivo metastatic model (ovarian xenograph, luciferase tumor imaging); set-up: species or system mouse; conditions: treated mice
Source text: The human ovarian tumor cell line OVCAR3 was transduced with a triple fusion gene HSV-TK/eGFP/FLuc, expressing thymidine kinase, enhanced green fluorescence protein and firefly luciferase. Whole animal imaging by luciferase bioluminescence (FIG. 5A), allowed identification and quantification of disseminated tumor. We quantified the tumor burden in each organ, by sacrificing the mouse shortly after luciferin injecting and imaging of the dissected organs (lung, liver and spleen) (FIG. 5B). In all instances tumor engraftment was initiated with 1−5×10^7 cells and the recipients received 3 Gy irradiation 10 days before tumor engraftment. These tumor cells generated bulky omental metastases with diffuse microscopic peritoneal carcinomatosis causing ascites (FIG. 5A) with, significant pleural effusion and liver, lung and paraaortic metastases (FIG. 6).

human tumor cells [3] = conditions: Nakae et al., J. Antibiot., 2001; cited from earlier work
human tumor cells [4] = conditions: Nakae et al., J. Antibiot., 2001; cited from earlier work; remark: listed apart in the source
Stability in mice plasma = assay type: in vitro ADME
[5] = Homo sapiens, Ovcar3 cells, 12 hours, read-out: IC50, transwell assay
[6] = after 12h, human ovarian cancer cells, read-out: concentration at which 50% of the migration was inhibited in the transwell assay

Q: With COCO[C@H]1[C@H](C)COC(=O)CCCC/C=C/[C@@H]1OC [Compound 21] as the molecule, how does the IC50 [1, 5] read?
A: 75 ± 6.5 nM

Q: What about the IC50 [1, 6] of the same molecule?
A: 75 nM

Q: What about the “inhibiting the migration of human ovarian cancer cells in the transwell assay” value [1] of the same molecule?
A: highly potent

Q: And the “closure of the scar in the wound healing assay” value (Ovcar3 tumor cells)?
A: inhibited the closure of the scar

Q: With CO[C@H]1/C=C/CCCCC(=O)OC[C@@H](C)[C@@H]1O [Compound 22] as the molecule, how does the IC50 [1, 5] read?
A: 738 ± 267 nM

Q: Which results are given for CO[C@H]1/C=C/CC/C=C/COC[C@@H](C)[C@@H]1O [Compound 30]?
A: IC50 [1, 5]: 27 ± 5.8 nM; IC50 [1, 6]: 27 nM; inhibiting the migration of human ovarian cancer cells in the transwell assay [1]: highly potent; tumor metastasis, Luciferase tumor imaging [2]: significant inhibition of tumor metastasis; closure of the scar in the wound healing assay (Ovcar3 tumor cells): inhibited the closure of the scar

Q: For CO[C@H]1/C=C/CC/C=C/C(=O)O[C@H]([C@H](C)C(=O)CCCC2CC(=O)NC(=O)C2)/C(C)=C\[C@@H](C)[C@@H]1O [Migrastatin], which “anchorage-independent growth of human tumor cells” value (human tumor cells [3]) is on record?
A: inhibit

Q: What about the “migration of human tumor cells” value (human tumor cells [4]) of the same molecule?
A: inhibit

Q: For CO[C@H]1/C=C/CC/C=C/COC/C(C)=C\[C@@H](C)[C@@H]1O [compound 57], which IC50 [1, 5] is on record?
A: 180 nM

Q: Which “stability in mice plasma” value (Stability in mice plasma) does the source give for CO[C@H]1/C=C/CCCCCOC/C(C)=C\[C@@H](C)[C@@H]1O [compound 61] here?
A: stable

Q: With CO[C@H]1[C@H](C)/C=C(/C)COCCCCC/C=C/[C@@H]1OC [compound 62] as the molecule, how does the IC50 [1, 5] read?
A: 180 nM
